Data on nine compounds can be found in patent publication US20260317324A1, “BIFUNCTIONAL COMPOUNDS FOR DEGRADING BRAF VIA UBIQUITIN PROTEOSOME PATHWAY” (Nurix Therapeutics, Inc., priority 2023, published 2026).

Assay type in all cases: cell-based
One assay addresses T1, BRAF G466V (Homo sapiens, UniProt P15056, G466V).
T1 construct: Horizon Discovery (HCT-116 BRAF−/− cells); host or cells: HCT-116 BRAF−/− cells, clone 8, lentiviral transduction
Kind of assay: BRAF HiBiT degradation assay, C-terminal HiBiT-tagged BRAF G466V overexpressed in HCT-116 BRAF−/− cells (clone 8), Nano-Glo HiBiT Lytic assay. In short, it runs like this: (§1)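 First, the stable HiBiT-tagged cells were plated and incubated for 24 h. Next, compound was added in duplicate as an 11-point series with a 1 μM top concentration. Lytic detection followed, with DMSO-treated parental cells used for background. Finally, DC50 and Obs. Dmax relative to DMSO were derived from the % protein remaining curves.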
For orientation: The HiBiT peptide binds its large partner to form an active luciferase.

In another assay the target is T2, BRAF D594G (Homo sapiens, UniProt P15056, D594G).
T2 construct: Horizon Discovery (HCT-116 BRAF−/− cells); host or cells: HCT-116 BRAF−/− cells, clone 63, lentiviral transduction
Kind of assay: BRAF HiBiT degradation assay, C-terminal HiBiT-tagged BRAF D594G overexpressed in HCT-116 BRAF−/− cells (clone 63), Nano-Glo HiBiT Lytic assay. In short, it runs like this:
as §1

Another assay has as its target T3, BRAF V600E (Homo sapiens, UniProt P15056, V600E).
T3 construct: endogenous C-terminal HiBiT fusion tag on BRAF V600E allele; endogenous in cells; host or cells: A375 clone 1F10 (CRISPR-Cas9 knock-in of the HiBiT tag; parental A375 from ATCC)
The experiment in a line: BRAF HiBiT degradation assay, C-terminal HiBiT-tagged BRAF V600E A375 cells (clone 1F10), Nano-Glo HiBiT Lytic assay. The settings on record: for Dmax: A-375. In short, it runs like this: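 Degradation is measured as loss of HiBiT signal from BRAF V600E tagged at its native locus in A375 cells. Doses span 1 μM to 0.01 nM in half-log steps, in duplicate. Percent remaining is calculated against DMSO controls after subtracting untagged A375 background, and curve fitting yields DC50 and observed Dmax.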

The next assay concerns the target T4, BRAF G469A (Homo sapiens, UniProt P15056, G469A).
T4 construct: Horizon Discovery (HCT-116 BRAF−/− cells); host or cells: HCT-116 BRAF−/− cells, clone 34, lentiviral transduction
Kind of assay: BRAF HiBiT degradation assay, C-terminal HiBiT-tagged BRAF G469A overexpressed in HCT-116 BRAF−/− cells (clone 34), Nano-Glo HiBiT Lytic assay. In short, it runs like this: as §1

The mark [1] stands for this setting: BRAF G466V (Class 3), HCT-116 BRAF−/− cells, DC50 at 50% degradation.
Where [2] appears, read: BRAF G466V (Class 3), HCT-116 BRAF−/− cells, observed Dmax relative to DMSO control.
Setting [3] is: BRAF D594G (Class 3), HCT-116 BRAF−/− cells, DC50 at 50% degradation.
[4] abbreviates: BRAF D594G (Class 3), HCT-116 BRAF−/− cells, observed Dmax relative to DMSO control.
Where [5] appears, read: A375 (BRAF V600E, Class 1), DC50 at 50% degradation.
[6] abbreviates: A375 (BRAF V600E, Class 1), observed Dmax, % protein degraded relative to DMSO control.
Where [7] appears, read: BRAF G469A (Class 2), HCT-116 BRAF−/− cells, DC50 at 50% degradation.
[8] abbreviates: BRAF G469A (Class 2), HCT-116 BRAF−/− cells, observed Dmax relative to DMSO control.
The mark [9] stands for this setting: BRAF G466V, DC50 at 50%: fitted conc. at Y=50.
[10] abbreviates: HCT-116, BRAF G466V, percentage protein degraded at maximal compound effect relative to DMSO.
Setting [11] is: BRAF D594G, DC50 at 50%: fitted conc. at Y=50.
Setting [12] is: HCT-116, BRAF D594G, percentage protein degraded at maximal compound effect relative to DMSO.
[13] abbreviates: A375 (BRAF V600E), DC50 at 50%: fitted conc. at Y=50.
Setting [14] is: A375 (BRAF V600E), percentage protein degraded at maximal compound effect relative to DMSO.
Where [15] appears, read: Class 2, BRAF G469A, DC50 at 50%: fitted conc. at Y=50.
Setting [16] is: HCT-116, Class 2, BRAF G469A, percentage protein degraded at maximal compound effect relative to DMSO.

T4 sequence (P15056 whole entry G469A): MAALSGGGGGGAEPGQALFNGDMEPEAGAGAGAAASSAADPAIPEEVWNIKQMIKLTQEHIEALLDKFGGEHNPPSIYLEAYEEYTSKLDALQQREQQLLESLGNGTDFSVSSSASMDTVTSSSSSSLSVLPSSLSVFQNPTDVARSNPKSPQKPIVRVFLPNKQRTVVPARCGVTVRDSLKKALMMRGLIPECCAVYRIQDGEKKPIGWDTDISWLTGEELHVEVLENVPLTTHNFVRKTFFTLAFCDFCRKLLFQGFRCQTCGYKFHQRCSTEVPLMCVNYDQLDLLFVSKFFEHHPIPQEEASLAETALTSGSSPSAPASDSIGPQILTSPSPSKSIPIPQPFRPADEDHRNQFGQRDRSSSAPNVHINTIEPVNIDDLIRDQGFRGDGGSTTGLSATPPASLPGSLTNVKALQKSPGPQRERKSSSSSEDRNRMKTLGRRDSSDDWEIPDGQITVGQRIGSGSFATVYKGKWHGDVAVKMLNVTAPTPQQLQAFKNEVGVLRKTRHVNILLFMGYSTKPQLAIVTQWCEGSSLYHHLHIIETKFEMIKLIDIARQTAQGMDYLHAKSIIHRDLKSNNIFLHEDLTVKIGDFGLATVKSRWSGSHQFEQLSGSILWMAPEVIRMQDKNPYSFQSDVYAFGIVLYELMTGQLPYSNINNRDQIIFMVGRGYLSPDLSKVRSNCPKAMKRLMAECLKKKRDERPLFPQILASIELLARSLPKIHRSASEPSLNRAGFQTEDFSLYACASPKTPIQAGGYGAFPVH
T3 sequence (P15056 whole entry V600E, the tested form may be a part): as the sequence (P15056 whole entry G469A) above, with A469G, V600E counted along it
T1 sequence (P15056 whole entry G466V): as the sequence (P15056 whole entry G469A) above, with G466V, A469G counted along it
T2 sequence (P15056 whole entry D594G): as the sequence (P15056 whole entry G469A) above, with A469G, D594G counted along it

Broadly, the DC50 is the concentration giving 50% degradation. By Dmax is commonly meant the greatest extent of degradation seen. Low values mean a partial loss of target, high ones a fuller loss of target. As to `CCCS(=O)(=O)Nc1cccc(-c2nc(C3CCC4(CC3)CCN(CC3CCN(c5ccc6c(c5)CN(C5CCC(=O)NC5=O)C6=O)CC3)CC4)sc2-c2ccnc(N)n2)c1F` (racemic) [Compound 258, Rac-N-{3-[5-(2-aminopyrimidin-4-yl)-2-{3-[(1-{2-[(3R)-2,6-dioxopiperidin-3-yl]-1-oxo-2,3-dihydro-1H-isoindol-5-yl}piperidin-4-yl)methyl]-3-azaspiro[5.5]undecan-9-yl}-1,3-thiazol-4-yl]-2-fluorophenyl}propane-1-sulfonamide], the DC50 is greater than 500 nM at BRAF G466V (setting [1]), greater than 500 nM at BRAF D594G (setting [3]), less than 10 nM on BRAF V600E (setting [5]) and greater than 500 nM at BRAF G469A (setting [7]). The Dmax on BRAF G466V (setting [2]) was 30 to 70%; at BRAF D594G (setting [4]), less than 30%; on BRAF V600E (setting [6]), 30 to 70%; at BRAF G469A (setting [8]), less than 30%.
For the compound `O=C1CC[C@H](c2ccc(N3CCC(CN4CCN(c5ccc(-n6cc(-c7cc(Cl)cc(NS(=O)(=O)N8CC[C@@H](F)C8)c7F)c(-c7ccncc7)n6)nc5)CC4)CC3)cc2)C(=O)N1` [Compound 294, (3R)—N-{5-chloro-3-[1-(5-{4-[(1-{4-[(3R)-2,6-dioxopiperidin-3-yl]phenyl}piperidin-4-yl)methyl]piperazin-1-yl}pyridin-2-yl)-3-(pyridin-4-yl)-1H-pyrazol-4-yl]-2-fluorophenyl}-3-fluoropyrrolidine-1-sulfonamide], the DC50 on BRAF G466V (setting [1]), at BRAF D594G (setting [3]), at BRAF V600E (setting [5]) and at BRAF G469A (setting [7]) was less than 10 nM throughout. The Dmax at BRAF G466V (setting [2]), on BRAF D594G (setting [4]), at BRAF V600E (setting [6]) and on BRAF G469A (setting [8]) was greater than 70% throughout.
As to `O=C1CCN(c2ccc(N3CCC(CN4CCN(c5ccc(-n6cc(-c7cc(F)cc(NS(=O)(=O)N8CCCC8)c7F)c(-c7ccncc7)n6)cc5)CC4)CC3)cc2)C(=O)N1` [Compound 300, N-[3-(1-{4-[4-({1-[4-(2,4-dioxo-1,3-diazinan-1-yl)phenyl]piperidin-4-yl}methyl)piperazin-1-yl]phenyl}-3-(pyridin-4-yl)-1H-pyrazol-4-yl)-2,5-difluorophenyl]pyrrolidine-1-sulfonamide], the DC50 at BRAF G466V (setting [1]) was less than 10 nM; on BRAF D594G (setting [3]), less than 10 nM; on BRAF V600E (setting [5]), 10 to 50 nM; at BRAF G469A (setting [7]), 50 to 500 nM. Further, the Dmax at BRAF G466V (setting [2]) is greater than 70%; on BRAF D594G (setting [4]) it was 30 to 70%; on BRAF V600E (setting [6]), greater than 70%; on BRAF G469A (setting [8]), 30 to 70%.
Consider `O=C1CC[C@H](c2ccc(N3CCC(CN4CCN(c5ccc(-n6cc(-c7cc(Cl)cc(NS(=O)(=O)N8CC[C@@H](F)C8)c7F)c(-c7ccncc7)n6)cc5)CC4)CC3)cc2)C(=O)N1` [Compound 291, (3R)—N-{5-chloro-3-[1-(4-{4-[(1-{4-[(3R)-2,6-dioxopiperidin-3-yl]phenyl}piperidin-4-yl)methyl]piperazin-1-yl}phenyl)-3-(pyridin-4-yl)-1H-pyrazol-4-yl]-2-fluorophenyl}-3-fluoropyrrolidine-1-sulfonamide], for which the DC50 at BRAF G466V (setting [1]), on BRAF D594G (setting [3]), at BRAF V600E (setting [5]) and on BRAF G469A (setting [7]) was less than 10 nM each time. The Dmax at BRAF G466V (setting [2]), at BRAF D594G (setting [4]), on BRAF V600E (setting [6]) and on BRAF G469A (setting [8]) was greater than 70% throughout.
Consider `O=C1CCN(c2ccc(N3CCC(CN4CCN(c5ccc(-n6cc(-c7cc(Cl)cc(NS(=O)(=O)N8CCCC8)c7F)c(-c7ccncc7)n6)cc5)CC4)CC3)cc2)C(=O)N1` [Compound 283, N-[5-chloro-3-(1-{4-[4-({1-[4-(2,4-dioxo-1,3-diazinan-1-yl)phenyl]piperidin-4-yl}methyl)piperazin-1-yl]phenyl}-3-(pyridin-4-yl)-1H-pyrazol-4-yl)-2-fluorophenyl]pyrrolidine-1-sulfonamide], for which the half-maximal degradation concentration (DC50) at BRAF G466V (setting [1]) was less than 10 nM; on BRAF D594G (setting [3]) it was less than 10 nM; on BRAF V600E (setting [5]) it was less than 10 nM; on BRAF G469A (setting [7]), greater than 500 nM. In addition, the Dmax was greater than 70% at BRAF G466V (setting [2]), 30 to 70% on BRAF D594G (setting [4]), greater than 70% at BRAF V600E (setting [6]) and 30 to 70% at BRAF G469A (setting [8]).
As for `CCCS(=O)(=O)Nc1cccc(-c2nc(C3CCN(C(=O)C4CCN(C(=O)C5(C)CCN(c6ccc(C7CCC(=O)NC7=O)cn6)CC5)CC4)CC3)sc2-c2ccnc(N)n2)c1F` (racemic) [Compound 193, Rac-N-{3-[5-(2-aminopyrimidin-4-yl)-2-{1-[1-(1-{5-[(3R)-2,6-dioxopiperidin-3-yl]pyridin-2-yl}-4-methylpiperidine-4-carbonyl)piperidine-4-carbonyl]piperidin-4-yl}-1,3-thiazol-4-yl]-2-fluorophenyl}propane-1-sulfonamide], the DC50 on BRAF G466V (setting [9]) was 10 to 50 nM; at BRAF D594G (setting [11]), less than 10 nM; at BRAF V600E (setting [13]), less than 10 nM; at BRAF G469A (setting [15]), greater than 500 nM. Besides, the Dmax is 30 to 70% at BRAF G466V (setting [10]), 30 to 70% at BRAF D594G (setting [12]), greater than 70% on BRAF V600E (setting [14]) and 30 to 70% on BRAF G469A (setting [16]).
Turning to `CCCS(=O)(=O)Nc1cccc(-c2nc(C(C)(C)C)sc2-c2ccnc(Nc3cccc(OC4CCN(CC5(C)CCN(c6ccc(C7CCC(=O)NC7=O)cn6)CC5)CC4)c3)n2)c1F` (racemic) [Compound 68, Rac-N-{3-[2-tert-butyl-5-(2-{[3-({1-[(1-{5-[(3R)-2,6-dioxopiperidin-3-yl]pyridin-2-yl}-4-methylpiperidin-4-yl)methyl]piperidin-4-yl}oxy)phenyl]amino}pyrimidin-4-yl)-1,3-thiazol-4-yl]-2-fluorophenyl}propane-1-sulfonamide], the DC50 at BRAF G466V (setting [9]) is 50 to 500 nM; at BRAF D594G (setting [11]) it was greater than 500 nM; on BRAF V600E (setting [13]) it was 10 to 50 nM; on BRAF G469A (setting [15]) it was 50 to 500 nM. In addition, the Dmax on BRAF G466V (setting [10]) is 30 to 70%; on BRAF D594G (setting [12]) it was 30 to 70%; on BRAF V600E (setting [14]) it was greater than 70%; on BRAF G469A (setting [16]), 30 to 70%.
As to `O=C1CC[C@H](c2ccc(N3CCC(CN4CCN(c5ccc(-n6cc(-c7cc(Cl)cc(NS(=O)(=O)N8CCCC8)c7F)c(-c7ccncc7)n6)cc5)CC4)CC3)cc2F)C(=O)N1` [Compound 344, N-{5-chloro-3-[1-(4-{4-[(1-{4-[(3R)-2,6-dioxopiperidin-3-yl]-3-fluorophenyl}piperidin-4-yl)methyl]piperazin-1-yl}phenyl)-3-(pyridin-4-yl)-1H-pyrazol-4-yl]-2-fluorophenyl}pyrrolidine-1-sulfonamide], the DC50 on BRAF G466V (setting [1]), at BRAF D594G (setting [3]), at BRAF V600E (setting [5]) and on BRAF G469A (setting [7]) was less than 10 nM each time. For the same compound, the Dmax on BRAF G466V (setting [2]), on BRAF D594G (setting [4]), at BRAF V600E (setting [6]) and on BRAF G469A (setting [8]) was greater than 70% each time.
Consider `CCCS(=O)(=O)Nc1cccc(-c2nc(C(C)(C)C)sc2-c2ccnc(Nc3ccc(N4CCN(CC5CCN(c6ccc(C7CCC(=O)NC7=O)cn6)CC5)CC4)cc3)n2)c1F` (racemic) [Compound 47, Rac-N-[3-(2-tert-butyl-5-{2-[(4-{4-[(1-{5-[(3R)-2,6-dioxopiperidin-3-yl]pyridin-2-yl}piperidin-4-yl)methyl]piperazin-1-yl}phenyl)amino]pyrimidin-4-yl}-1,3-thiazol-4-yl)-2-fluorophenyl]propane-1-sulfonamide], for which the DC50 at BRAF G466V (setting [9]) was less than 10 nM; at BRAF D594G (setting [11]) it was 10 to 50 nM; at BRAF V600E (setting [13]), less than 10 nM; on BRAF G469A (setting [15]), greater than 500 nM. The Dmax is greater than 70% on BRAF G466V (setting [10]), 30 to 70% at BRAF D594G (setting [12]), greater than 70% at BRAF V600E (setting [14]) and 30 to 70% on BRAF G469A (setting [16]).
